{"source": "patent EP2979694B1", "about": "“Dimercaptosuccinic acid for the treatment of multidrug resistant bacterial infections” (priority 2014, dated 2016)", "key": {"K.p. ROUM": {"tested_on": "K.p. ROUM", "test": "MIC of carbapenems with or without DMSA", "format": "cell-based, K. pneumoniae", "conditions": "VIM, no DMSA", "experimental": "(§1) Minimum inhibitory concentrations (MICs) of carbapenems were determined in-vitro with strains (reference and clinical) producing the three main types of class B carbapenemases which are IMP, VIM and NDM, with or without EDTA and DMSA.\n(§2) MICs of imipenem was determined for E. coli TOP10 pCR2.1-(PNDM-1-blaNDM-1-bleMBL) in the presence of 0, 0.01, 0.1 or 1 mg/ml of Ca-EDTA or DMSA by using the broth microdilution method in zinc-complemented M9CA minimum medium (SD7025, Euromedex, France).\n(§3) A 100 mM DMSA stock solution (Sigma Aldrich, France) (pH 5.0) was prepared in 0.2 M NaOH as recommended (Maiorino et al. 1990) and pH was neutralized to pH 7.0 with NaHCO3 Na2Ca-EDTA (Sigma Aldrich, France) dissolved in water.\n(§4) The strains were as follows: VIM producers (n=10), IMP producers (n=9), NDM-1 producers (n=10). The selected concentration of DMSA was 10-fold (0.3 mM) and 100-fold (3 mM) that of the human peak serum concentration after oral administration (Asiedu et al;, 1995), and that of Ca-EDTA was assayed at the fixed concentration of 0.2 mM (Table 2). […]"}, "K.p. 6852": {"tested_on": "K.p. 6852", "test": "MIC of carbapenems with or without DMSA", "format": "cell-based, K. pneumoniae", "conditions": "K.p. 6852, IMP-1 + SHV-5; no DMSA", "experimental": "as §1, §2, §3, §4"}, "K.p. 0709124": {"tested_on": "K.p. 0709124", "test": "MIC of carbapenems with or without DMSA", "format": "cell-based, K. pneumoniae", "conditions": "K.p. 0709124, IMP-1b + TEM-15; no DMSA", "experimental": "as §1, §2, §3, §4"}, "K.p. TAW": {"tested_on": "K.p. TAW", "test": "MIC of carbapenems with or without DMSA", "format": "cell-based, K. pneumoniae", "conditions": "IMP-8 + SHV-5, no DMSA", "experimental": "as §1, §2, §3, §4"}, "E. coli 1108013": {"tested_on": "E. coli 1108013", "test": "MIC of carbapenems with or without DMSA", "format": "cell-based", "conditions": "E. coli 1108013, IMP-1 + TEM-1; no DMSA", "experimental": "as §1, §2, §3, §4"}, "E. coli 1008077": {"tested_on": "E. coli 1008077", "test": "MIC of carbapenems with or without DMSA", "format": "cell-based", "conditions": "E. coli 1008077, VIM-1 + TEM-3; no DMSA", "experimental": "as §1, §2, §3, §4"}, "E. cloacae TAW": {"tested_on": "E. cloacae TAW", "test": "MIC of carbapenems with or without DMSA", "format": "cell-based", "conditions": "IMP-8, no DMSA", "experimental": "as §1, §2, §3, §4"}, "E. coli COUP": {"tested_on": "E. coli COUP", "test": "MIC of carbapenems with or without DMSA", "format": "cell-based", "conditions": "NDM-7 + OXA-1 +CTX-M-15, no DMSA", "experimental": "as §1, §2, §3, §4"}, "E. cloacae 1008186": {"tested_on": "E. cloacae 1008186", "test": "MIC of carbapenems with or without DMSA", "format": "cell-based", "conditions": "E. cloacae 1008186, IMP-1; no DMSA", "experimental": "as §1, §2, §3, §4"}, "E. coli 405": {"tested_on": "E. coli 405", "test": "MIC of carbapenems with or without DMSA", "format": "cell-based", "conditions": "E. coli 405, NDM-5 + TEM-1 +CTX-M-15; no DMSA", "experimental": "as §1, §2, §3, §4"}, "E. coli IBIS": {"tested_on": "E. coli IBIS", "test": "MIC of carbapenems with or without DMSA", "format": "cell-based", "conditions": "VIM-4, no DMSA, unit assumed", "experimental": "as §1, §2, §3, §4"}, "E. cloacae 1008085": {"tested_on": "E. cloacae 1008085", "test": "MIC of carbapenems with or without DMSA", "format": "cell-based", "conditions": "E. cloacae 1008085, IMP-1; no DMSA", "experimental": "as §1, §2, §3, §4"}, "E. cloacae 1008029": {"tested_on": "E. cloacae 1008029", "test": "MIC of carbapenems with or without DMSA", "format": "cell-based", "conditions": "E. cloacae 1008029, VIM-1 + CTX-M-3; no DMSA", "experimental": "as §1, §2, §3, §4"}, "E. coli 0404018": {"tested_on": "E. coli 0404018", "test": "MIC of carbapenems with or without DMSA", "format": "cell-based", "conditions": "E. coli 0404018, VIM-1 + CMY-6; no DMSA", "experimental": "as §1, §2, §3, §4"}, "E. coli DIH": {"tested_on": "E. coli DIH", "test": "MIC of carbapenems with or without DMSA", "format": "cell-based", "conditions": "VIM-19, no DMSA", "experimental": "as §1, §2, §3, §4"}, "E. coli IR5": {"tested_on": "E. coli IR5", "test": "MIC of carbapenems with or without DMSA", "format": "cell-based", "conditions": "E. coli IR5, NDM-1 + TEM-1 +CTX-M-15; no DMSA", "experimental": "as §1, §2, §3, §4"}, "E. cloacae 396715": {"tested_on": "E. cloacae 396715", "test": "MIC of carbapenems with or without DMSA", "format": "cell-based", "conditions": "E. cloacae 396715, VIM-1; no DMSA", "experimental": "as §1, §2, §3, §4"}, "E. coli MAD": {"tested_on": "E. coli MAD", "test": "MIC of carbapenems with or without DMSA", "format": "cell-based", "conditions": "VIM-1 + CTX-M-3, no DMSA", "experimental": "as §1, §2, §3, §4"}, "E. coli BOUN": {"tested_on": "E. coli BOUN", "test": "MIC of carbapenems with or without DMSA", "format": "cell-based", "conditions": "NDM-4 + OXA-1, no DMSA", "experimental": "as §1, §2, §3, §4"}, "E. coli JAP": {"tested_on": "E. coli JAP", "test": "MIC of carbapenems with or without DMSA", "format": "cell-based", "conditions": "IMP-1, no DMSA", "experimental": "as §1, §2, §3, §4"}, "E. cloacae 1008183": {"tested_on": "E. cloacae 1008183", "test": "MIC of carbapenems with or without DMSA", "format": "cell-based", "conditions": "E. cloacae 1008183, IMP-1; no DMSA", "experimental": "as §1, §2, §3, §4"}, "E. coli 162": {"tested_on": "E. coli 162", "test": "MIC of carbapenems with or without DMSA", "format": "cell-based", "conditions": "E. coli 162, NDM-5 + TEM-1 +CTX-M-15; no DMSA", "experimental": "as §1, §2, §3, §4"}, "E. coli VIM KOW7": {"tested_on": "E. coli VIM KOW7", "test": "MIC of meropenem with or without DMSA or MSA", "format": "cell-based", "conditions": "Escherichia coli, VIMKOW7, without DMSA or MSA", "experimental": "(§5) DMSA reduced the MICs of ertapenem for bacteria producing NDM-1 though the synergy effect was weaker than that observed for bacteria producing IMP and VIM-type MBLs.\n(§6) MICs of meropenem with of without DMSA or MSA Table 3\n(§7) DMSA and MSA were used at a concentration of 3 mM each. A negative control was used as strain KpC3 producing the non- metallo carbapenemase KPC"}, "E. coli NDM FEK": {"tested_on": "E. coli NDM FEK", "test": "MIC of meropenem with or without DMSA or MSA", "format": "cell-based", "conditions": "Escherichia coli, without DMSA or MSA", "experimental": "as §5, §6, §7"}, "E. coli NDM CHAN": {"tested_on": "E. coli NDM CHAN", "test": "MIC of meropenem with or without DMSA or MSA", "format": "cell-based", "conditions": "Escherichia coli, without DMSA or MSA", "experimental": "as §5, §6, §7"}, "E. coli NDM pCR2.1": {"tested_on": "E. coli NDM pCR2.1", "test": "MIC of meropenem with or without DMSA or MSA", "format": "cell-based", "conditions": "Escherichia coli, NDMPCR2.1, read-out: MIC of meropenem", "experimental": "as §5, §6, §7"}, "Kp VIM KOW1": {"tested_on": "Kp VIM KOW1", "test": "MIC of meropenem with or without DMSA or MSA", "format": "cell-based, K. pneumoniae", "conditions": "Klebsiella pneumoniae, VIMKOW1, without DMSA or MSA", "experimental": "as §6, §7"}, "Kp NDM KIE": {"tested_on": "Kp NDM KIE", "test": "MIC of meropenem with or without DMSA or MSA", "format": "cell-based, K. pneumoniae", "conditions": "Klebsiella pneumoniae, without DMSA or MSA", "experimental": "as §6, §7"}, "Kp NDM IND": {"tested_on": "Kp NDM IND", "test": "MIC of meropenem with or without DMSA or MSA", "format": "cell-based, K. pneumoniae", "conditions": "Klebsiella pneumoniae, without DMSA or MSA", "experimental": "as §6, §7"}, "Kp C3 KPC-3": {"tested_on": "Kp C3 KPC-3", "test": "MIC of meropenem with or without DMSA or MSA (negative control strain, non-metallo carbapenemase KPC)", "format": "cell-based, K. pneumoniae", "conditions": "Klebsiella pneumoniae, C3KPC3; Kp C3 KPC-3 (negative control); without DMSA or MSA", "experimental": "as §6, §7"}}}
{"smiles": "C[C@@H](O)[C@H]1C(=O)N2C(C(=O)O)=C(SCCN=CN)C[C@H]12", "note": "[IPM, imipenem]", "values": [{"measurement": "MIC", "setting": "K.p. ROUM", "value": 32, "unit": "µg/mL"}, {"measurement": "MIC", "setting": "K.p. 6852", "value": "> 32", "unit": "µg/mL"}, {"measurement": "MIC", "setting": "K.p. 0709124", "value": 32, "unit": "µg/mL"}, {"measurement": "MIC", "setting": "K.p. TAW", "value": 4, "unit": "µg/mL"}, {"measurement": "MIC", "setting": "E. coli 1108013", "value": 4, "unit": "µg/mL"}, {"measurement": "MIC", "setting": "E. coli 1008077", "value": 32, "unit": "µg/mL"}, {"measurement": "MIC", "setting": "E. cloacae TAW", "value": 4, "unit": "µg/mL"}, {"measurement": "MIC", "setting": "E. coli COUP", "value": 2, "unit": "µg/mL"}, {"measurement": "MIC", "setting": "E. cloacae 1008186", "value": 16, "unit": "µg/mL"}, {"measurement": "MIC", "setting": "E. coli 405", "value": 32, "unit": "µg/mL"}, {"measurement": "MIC", "setting": "E. coli IBIS", "value": 1, "unit": "µg/mL"}, {"measurement": "MIC", "setting": "E. cloacae 1008085", "value": 2, "unit": "µg/mL"}, {"measurement": "MIC", "setting": "E. cloacae 1008029", "value": 16, "unit": "µg/mL"}, {"measurement": "MIC", "setting": "E. coli 0404018", "value": 4, "unit": "µg/mL"}, {"measurement": "MIC", "setting": "E. coli DIH", "value": 16, "unit": "µg/mL"}, {"measurement": "MIC", "setting": "E. coli IR5", "value": 2, "unit": "µg/mL"}, {"measurement": "MIC", "setting": "E. cloacae 396715", "value": 4, "unit": "µg/mL"}, {"measurement": "MIC", "setting": "E. coli MAD", "value": 0.25, "unit": "µg/mL"}, {"measurement": "MIC", "setting": "E. coli BOUN", "value": 2, "unit": "µg/mL"}, {"measurement": "MIC", "setting": "E. coli JAP", "value": 0.25, "unit": "µg/mL"}, {"measurement": "MIC", "setting": "E. cloacae 1008183", "value": 8, "unit": "µg/mL"}, {"measurement": "MIC", "setting": "E. coli 162", "value": 32, "unit": "µg/mL"}]}
{"smiles": "C[C@@H](O)[C@H]1C(=O)N2C(C(=O)O)=C(S[C@@H]3CN[C@H](C(=O)N(C)C)C3)[C@H](C)[C@H]12", "note": "[meropenem]", "values": [{"measurement": "MIC", "setting": "E. coli VIM KOW7", "value": 0.5, "unit": "µg/mL"}, {"measurement": "MIC", "setting": "E. coli NDM FEK", "value": 6, "unit": "µg/mL"}, {"measurement": "MIC", "setting": "E. coli NDM CHAN", "value": 3, "unit": "µg/mL"}, {"measurement": "MIC", "setting": "E. coli NDM pCR2.1", "value": "> 32", "unit": "µg/mL"}, {"measurement": "MIC", "setting": "Kp VIM KOW1", "value": "> 32", "unit": "µg/mL"}, {"measurement": "MIC", "setting": "Kp NDM KIE", "value": 4, "unit": "µg/mL"}, {"measurement": "MIC", "setting": "Kp NDM IND", "value": 4, "unit": "µg/mL"}, {"measurement": "MIC", "setting": "Kp C3 KPC-3", "value": "> 32", "unit": "µg/mL"}]}
